Some test systems named below: Escherichia coli UB1005; Escherichia coli DC2; Escherichia coli; Bacillus anthracis; Staphylococcus aureus; Bacillus cereus; Candida krusei; Fusarium oxysporum; Fusarium solani AZN 6836; Candida glabrata; Aspergillus ustus; Rhizopus oryzae AZN 8892; Candida tropicalis.
Assay in all cases: ≥ marks a high value that may be exact or a test limit, other limits are often not marked, values filed in µg/mL are converted to µM
The test system of test [1] is Salmonella enterica subsp. enterica serovar Typhimurium ATCC 700408.
The subject of test [2] is Staphylococcus aureus ATCC BAA-39.
Test [3] has as its system Salmonella enterica subsp. enterica serovar Typhimurium ATCC 14028.
In test [4] the test system is Staphylococcus aureus ATCC 25923.
Test [5] deals with Escherichia coli ATCC 25922.
Test [6] deals with Listeria monocytogenes ATCC 19115.
The test system of test [7] is Klebsiella pneumoniae ATCC 13883.
The test system of test [8] is Staphylococcus aureus ATCC 43300.
Test [9] concerns Corynebacterium xerosis C875.
For test [10], the system named is Staphylococcus epidermidis C621.
In test [11] the test system is Candida albicans ATCC 24433.
Test [12] concerns Pseudomonas aeruginosa ATCC 27853.
Test [13] has as its system Klebsiella pneumoniae ATCC 10031.
For test [14], the system named is Cryptococcus neoformans CM133.
Test [15] relates to Enterococcus faecalis ATCC 29212.
Test [16] relates to Salmonella enterica subsp. enterica serovar Enteritidis.
For test [17], the system named is Aspergillus nidulans AZN 2867.
In test [18] the test system is Aspergillus fumigatus ATCC MYA-1163.

Values after ≈ are worked out from the molar mass of the structure shown.

On to `CC(C)C[C@H](NC(=O)[C@H](CCCN=C(N)N)NC(=O)CNC(=O)[C@H](CCC(N)=O)NC(=O)[C@@H]1CCCN1C(=O)[C@H](CC(C)C)NC(=O)[C@H](CCCCN)NC(=O)[C@H](Cc1ccccc1)NC(=O)[C@@H](NC(=O)[C@@H]1CCCN1C(=O)[C@H](CCC(N)=O)NC(=O)[C@H](CO)NC(=O)[C@H](Cc1ccccc1)NC(=O)[C@H](CCCN=C(N)N)NC(=O)[C@@H](N)CCC(N)=O)[C@@H](C)O)C(=O)N[C@H](C(=O)N[C@@H](CC(C)C)C(=O)N[C@@H](CO)C(=O)N[C@@H](CCCN=C(N)N)C(=O)N[C@@H](CCCCN)C(=O)N[C@@H](Cc1ccccc1)C(=O)O)[C@@H](C)O` [QRFSQPTFKLPQGRLTLSRKF], for which the MIC – broadly, the least concentration at which growth counts as inhibited – in test [1] was 9.86 µM (≈ 25 µg/mL); in test [2] it was at least 39.4 µM; in [3], 9.86 µM (≈ 25 µg/mL); in test [4] it was 39.4 µM (≈ 100 µg/mL); in test [5] it was 9.86 µM (≈ 25 µg/mL); in [6] it was 9.86 µM (≈ 25 µg/mL). Further, the MIC in [7] stood at 9.86 µM (≈ 25 µg/mL); in test [8], 39.4 µM (≈ 100 µg/mL).

On to `CC(C)C[C@H](NC(=O)[C@H](C)NC(=O)[C@H](C)NC(=O)[C@H](C)NC(=O)[C@H](CCCCN)NC(=O)[C@@H](N)CCCCN)C(=O)N[C@@H](C)C(=O)N[C@@H](C)C(=O)N[C@@H](C)C(=O)N[C@@H](C)C(=O)N[C@@H](C)C(=O)N[C@@H](CC(C)C)C(=O)N[C@@H](C)C(=O)N[C@@H](C)C(=O)N[C@@H](Cc1c[nH]c2ccccc12)C(=O)N[C@@H](C)C(=O)N[C@@H](C)C(=O)N[C@@H](CC(C)C)C(=O)N[C@@H](C)C(=O)N[C@@H](C)C(=O)N[C@@H](C)C(=O)N[C@@H](CCCCN)C(=O)N[C@@H](CCCCN)C(=O)N[C@@H](CCCCN)C(=O)N[C@@H](CCCCN)C(N)=O` [KKAAALAAAAALAAWAALAAAKKKK], for which the minimum inhibitory concentration (MIC) in test [9] was 0.25 µM (≈ 0.594 µg/mL); with Escherichia coli UB1005, at least 32 µM; in the test on Escherichia coli DC2, 16 µM (≈ 38 µg/mL); in test [10], 2 µM (≈ 4.76 µg/mL).

In the case of `CC[C@H](C)[C@H](NC(=O)[C@H](CC(C)C)NC(=O)[C@H](C)NC(=O)[C@@H]1CCCN1C(=O)[C@H](Cc1ccccc1)NC(=O)[C@@H](NC(=O)[C@H](CCCCN)NC(=O)[C@H](CO)NC(=O)[C@H](C)NC(=O)[C@@H](NC(=O)[C@H](CCCN=C(N)N)NC(=O)[C@H](Cc1ccccc1)NC(=O)[C@@H](NC(=O)[C@@H](NC(=O)[C@@H]1CCCN1C(=O)[C@@H](N)CC(C)C)C(C)C)C(C)C)C(C)C)C(C)C)C(=O)N[C@@H](CO)C(=O)N[C@@H](CCCCN)C(=O)N[C@@H](CC(C)C)C(=O)N[C@H](C(=O)O)[C@@H](C)O` [LPVVFRVASKVFPALISKLT], the MIC in the test with Escherichia coli is above 117 µM; in the test on Bacillus anthracis, at least 58.6 µM; against Staphylococcus aureus, 117 µM (≈ 256 µg/mL); against Bacillus cereus it was at least 117 µM.

As for `CC(C)C[C@@H]1NC(=O)[C@@H](NC(=O)[C@@H](N)CC(=O)O)CSSC[C@@H](C(=O)O)NC(=O)CNC(=O)[C@H](CCC(=O)O)NC(=O)[C@@H]2CSSC[C@@H]3NC(=O)[C@H](C(C)C)NC(=O)[C@H](CCCN=C(N)N)NC(=O)[C@H](CCCN=C(N)N)NC(=O)[C@@H]4CSSC[C@H](NC(=O)[C@H](CCCCN)NC(=O)[C@H](CC(C)C)NC(=O)[C@H](CO)NC(=O)[C@@H]5CCCN5C(=O)[C@H](CO)NC(=O)[C@H](CSSC[C@H](NC(=O)[C@@H]5CCCN5C(=O)CNC(=O)[C@H](CCCCN)NC(=O)[C@H](Cc5ccc(O)cc5)NC(=O)[C@H](CCCN=C(N)N)NC(=O)CNC(=O)[C@H](CO)NC1=O)C(=O)N[C@@H](C)C(=O)N[C@@H](C(C)C)C(=O)N[C@@H](Cc1c[nH]c5ccccc15)C(=O)N[C@@H](CC(=O)O)C(=O)N[C@@H](CC(N)=O)C(=O)N[C@@H](CCC(=O)O)C(=O)N[C@@H]([C@@H](C)O)C(=O)N4)NC(=O)[C@H](Cc1cnc[nH]1)NC(=O)CNC(=O)[C@H](CO)NC(=O)[C@H](CO)NC(=O)[C@H](CCCN=C(N)N)NC(=O)CNC(=O)[C@H](CCC(=O)O)NC(=O)[C@H](CCC(=O)O)NC(=O)[C@H](CCCCN)NC3=O)C(=O)N[C@@H](Cc1c[nH]c3ccccc13)C(=O)N2` [DCLSGRYKGPCAVWDNETCRRVCKEEGRSSGHCSPSLKCWCEGC], the MIC is at least 50 µM with Candida krusei; 6.25 µM (≈ 30.6 µg/mL) in the test with Fusarium oxysporum; 25 µM (≈ 122 µg/mL) against Fusarium solani AZN 6836; at least 50 µM against Candida glabrata; at least 50 µM in test [11]; above 50 µM in test [12]. The MIC is 25 µM (≈ 122 µg/mL) against Aspergillus ustus; at least 50 µM in test [13]; at least 50 µM in [14]; at least 50 µM against Rhizopus oryzae AZN 8892; above 50 µM in test [15]; above 50 µM in test [4]. In addition, the MIC was above 50 µM in test [5]; at least 50 µM in test [16]; at least 50 µM in test [17]; at least 50 µM in the test on Candida tropicalis; 6.25 µM (≈ 30.6 µg/mL) in [18]; above 50 µM in test [8].

Source of the values: DBAASP.
